Tests used:
Experiment in all cases: Kinobeads competition binding, HL60 cell lysate
Conditions in all cases: 10 μM free compound
MST4 = target: T1, MST4 (Homo sapiens, UniProt Q9P289)
T1 construct: endogenous in cells; host or cells: HL60
Experimental: (§1) To one aliquot of cell lysate 10 μM of the free compound (FIG. 3, CZC31326) was added and allowed to bind to proteins in the lysate. Then the affinity matrix with the immobilized compound (Example 1) was added to capture proteins that were not interacting with the previously added free compound. Beads were separated from the lysate and bead bound proteins were eluted in SDS sample buffer and subsequently separated by SDS-Polyacrylamide gel electrophoresis (FIG. 4). Suitable gel bands were cut out and subjected to in-gel proteolytic digestion with trypsin. The second lysate aliquot was processed identically, however no free compound was added (DMSO solvent control). Peptides originating from samples 1 and 2 were labeled with iTRAQ reagents (iTRAQ 114 and iTRAQ 117) and the combined samples were analyzed with a nano-flow liquid chromatography system coupled online to a tandem mass spectrometer (LC-MS/MS) experiment followed by iTRAQ reporter ion quantification in the MS/MS spectra (Ross et al., 2004. Mol. Cell. Proteomics 3(12):1154-1169). Further experimental protocols can be found in WO2006/134056 and a previous publication (Bantscheff et al., 2007. Nature Biotechnology 25, 1035-1044). Sepharose-beads with the immobilized compound (100 μl beads per pull-down experiment) were equilibrated in lysis buffer and incubated with a cell lysate sample containing 50 mg of protein on an end-over-end shaker (Roto Shake Genie, Scientific Industries Inc.) for 2 hours at 4° C. Beads were collected, transferred to Mobicol-columns (MoBiTech 10055) and washed with 10 ml lysis buffer containing 0.4% NP40 detergent, followed by 5 ml lysis buffer containing 0.2% detergent. To elute bound proteins, 60 μl 2×SDS sample buffer was added to the column. The column was incubated for 30 minutes at 50° C. and the eluate was transferred to a siliconized microfuge tube by centrifugation. Proteins were then alkylated with 108 mM iodoacetamid. Proteins were then separated by SDS-Polyacrylamide electrophoresis (SDS-PAGE). The peptide extracts of samples treated with 10 μM of free compound (CZC31326) and the solvent control (0.5% DMSO) were treated with different variants of the isobaric tagging reagent (iTRAQ Reagents Multiplex Kit, part number 4352135, Applied Biosystems, Foster City, Calif., USA). The iTRAQ reagents are a set of multiplexed, amine-specific, stable isotope reagents that can label peptides on amino groups in up to four different biological samples enabling simultaneous identification and quantitation of peptides. The iTRAQ reagents were used according to instructions provided by the manufacturer. The samples were resuspended in 10 μl 50 mM TEAB solution, pH 8.5 and 10 μl ethanol were added. The iTRAQ reagent was dissolved in 120 μl ethanol and 10 μl of reagent solution were added to the sample. The labeling reaction was performed at room temperature for one hour on a horizontal shaker and stopped by adding 5 μl of 100 mM TEAB and 100 mM glycine in water. The two labeled sampled were then combined, dried in a vacuum centrifuge and resuspended in 10 μl of 0.1% formic acid in water. Relative protein quantitation was performed using peak areas of iTRAQ reporter ion signals essentially as described in an earlier publication (Bantscheff et al., 2007. Nature Biotechnology 25, 1035-1044).

ACK = target: T2, ACK (Homo sapiens, UniProt Q07912)
T2 construct: endogenous in cells; host or cells: HL60 cells
T2 sequence (Q07912 whole entry): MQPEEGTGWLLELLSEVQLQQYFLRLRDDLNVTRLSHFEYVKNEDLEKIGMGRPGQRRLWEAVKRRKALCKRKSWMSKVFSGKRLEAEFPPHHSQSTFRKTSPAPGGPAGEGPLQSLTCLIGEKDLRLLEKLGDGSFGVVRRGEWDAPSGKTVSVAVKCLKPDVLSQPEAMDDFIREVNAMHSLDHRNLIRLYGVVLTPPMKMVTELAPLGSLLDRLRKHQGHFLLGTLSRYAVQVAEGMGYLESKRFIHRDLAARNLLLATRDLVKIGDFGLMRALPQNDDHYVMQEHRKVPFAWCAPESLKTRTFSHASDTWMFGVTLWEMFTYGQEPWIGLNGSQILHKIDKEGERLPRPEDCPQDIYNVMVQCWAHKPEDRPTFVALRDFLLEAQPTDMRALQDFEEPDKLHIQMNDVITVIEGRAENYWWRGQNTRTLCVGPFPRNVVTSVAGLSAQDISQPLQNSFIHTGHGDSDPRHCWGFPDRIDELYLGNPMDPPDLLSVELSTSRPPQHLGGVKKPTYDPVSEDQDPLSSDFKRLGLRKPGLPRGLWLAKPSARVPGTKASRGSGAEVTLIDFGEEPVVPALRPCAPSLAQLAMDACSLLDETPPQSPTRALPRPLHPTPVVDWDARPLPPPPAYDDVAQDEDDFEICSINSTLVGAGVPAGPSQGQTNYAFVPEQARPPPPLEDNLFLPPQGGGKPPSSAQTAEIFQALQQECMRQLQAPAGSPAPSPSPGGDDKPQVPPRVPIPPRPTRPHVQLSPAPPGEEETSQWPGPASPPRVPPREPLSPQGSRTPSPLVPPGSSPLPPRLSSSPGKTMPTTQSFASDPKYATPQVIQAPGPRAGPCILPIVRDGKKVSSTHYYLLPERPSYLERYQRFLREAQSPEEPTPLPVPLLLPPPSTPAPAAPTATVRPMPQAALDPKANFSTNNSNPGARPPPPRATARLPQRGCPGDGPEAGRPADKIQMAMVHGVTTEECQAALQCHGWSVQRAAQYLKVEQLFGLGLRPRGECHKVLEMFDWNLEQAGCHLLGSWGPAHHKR
Experimental: as §1

MSK1 = target: T3, MSK1 (Homo sapiens, UniProt O75582)
T3 construct: endogenous in cells; host or cells: HL60
T3 sequence (O75582 whole entry): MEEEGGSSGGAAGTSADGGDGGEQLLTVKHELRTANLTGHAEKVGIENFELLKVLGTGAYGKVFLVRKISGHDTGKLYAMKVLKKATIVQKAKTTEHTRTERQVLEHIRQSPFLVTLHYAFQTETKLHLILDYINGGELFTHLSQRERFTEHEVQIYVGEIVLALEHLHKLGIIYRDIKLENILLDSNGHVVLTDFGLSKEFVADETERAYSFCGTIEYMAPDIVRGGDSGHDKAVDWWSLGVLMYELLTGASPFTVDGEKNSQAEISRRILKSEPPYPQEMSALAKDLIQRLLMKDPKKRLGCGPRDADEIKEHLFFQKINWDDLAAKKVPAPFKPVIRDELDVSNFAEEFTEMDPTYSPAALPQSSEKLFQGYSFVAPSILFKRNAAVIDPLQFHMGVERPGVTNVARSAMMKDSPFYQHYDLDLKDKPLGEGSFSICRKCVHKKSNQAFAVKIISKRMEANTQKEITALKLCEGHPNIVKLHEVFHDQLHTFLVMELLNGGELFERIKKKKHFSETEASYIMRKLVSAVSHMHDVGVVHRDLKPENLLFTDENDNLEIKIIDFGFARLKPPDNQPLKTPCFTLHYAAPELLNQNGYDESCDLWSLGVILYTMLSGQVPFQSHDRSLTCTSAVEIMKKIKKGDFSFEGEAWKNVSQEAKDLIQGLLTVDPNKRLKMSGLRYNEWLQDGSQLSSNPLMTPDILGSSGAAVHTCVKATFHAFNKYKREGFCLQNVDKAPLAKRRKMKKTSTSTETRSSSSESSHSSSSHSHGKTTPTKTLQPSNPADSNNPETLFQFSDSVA
Experimental: as §1

EphB6 = target: T4, EphB6 (Homo sapiens, UniProt O15197)
T4 construct: endogenous in cells; host or cells: HL60 (DSMZ ACC3)
T4 sequence (O15197 32-1021): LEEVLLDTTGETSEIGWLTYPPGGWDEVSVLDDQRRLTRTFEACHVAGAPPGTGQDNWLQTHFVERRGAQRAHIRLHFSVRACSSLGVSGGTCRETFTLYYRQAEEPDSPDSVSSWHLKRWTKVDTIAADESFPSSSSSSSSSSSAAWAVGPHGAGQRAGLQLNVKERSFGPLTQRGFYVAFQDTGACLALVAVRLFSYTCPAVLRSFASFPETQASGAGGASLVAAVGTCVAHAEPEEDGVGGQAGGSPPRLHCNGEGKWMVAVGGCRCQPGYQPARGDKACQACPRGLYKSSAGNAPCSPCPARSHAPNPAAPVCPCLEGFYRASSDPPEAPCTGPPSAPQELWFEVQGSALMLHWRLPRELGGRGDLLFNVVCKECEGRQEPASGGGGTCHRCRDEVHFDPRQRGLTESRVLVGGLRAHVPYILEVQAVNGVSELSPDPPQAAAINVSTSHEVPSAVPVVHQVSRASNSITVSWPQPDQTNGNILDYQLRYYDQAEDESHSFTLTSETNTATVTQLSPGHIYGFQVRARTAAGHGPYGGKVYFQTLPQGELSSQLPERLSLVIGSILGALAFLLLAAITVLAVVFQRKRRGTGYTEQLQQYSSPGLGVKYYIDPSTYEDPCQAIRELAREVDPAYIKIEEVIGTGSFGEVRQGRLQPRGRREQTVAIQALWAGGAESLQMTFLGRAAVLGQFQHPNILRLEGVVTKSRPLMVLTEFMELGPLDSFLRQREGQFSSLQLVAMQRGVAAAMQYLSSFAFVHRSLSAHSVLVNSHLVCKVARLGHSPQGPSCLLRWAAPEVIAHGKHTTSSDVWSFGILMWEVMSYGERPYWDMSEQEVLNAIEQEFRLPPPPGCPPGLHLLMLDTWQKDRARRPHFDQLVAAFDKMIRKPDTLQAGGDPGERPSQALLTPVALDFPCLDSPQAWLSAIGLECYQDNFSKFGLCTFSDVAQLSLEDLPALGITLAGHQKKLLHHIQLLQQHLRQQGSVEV
Experimental: as §1

PKCb = target: T5, PKCb (Homo sapiens, UniProt P05771)
T5 construct: endogenous in cells; host or cells: HL60
T5 sequence (P05771 whole entry): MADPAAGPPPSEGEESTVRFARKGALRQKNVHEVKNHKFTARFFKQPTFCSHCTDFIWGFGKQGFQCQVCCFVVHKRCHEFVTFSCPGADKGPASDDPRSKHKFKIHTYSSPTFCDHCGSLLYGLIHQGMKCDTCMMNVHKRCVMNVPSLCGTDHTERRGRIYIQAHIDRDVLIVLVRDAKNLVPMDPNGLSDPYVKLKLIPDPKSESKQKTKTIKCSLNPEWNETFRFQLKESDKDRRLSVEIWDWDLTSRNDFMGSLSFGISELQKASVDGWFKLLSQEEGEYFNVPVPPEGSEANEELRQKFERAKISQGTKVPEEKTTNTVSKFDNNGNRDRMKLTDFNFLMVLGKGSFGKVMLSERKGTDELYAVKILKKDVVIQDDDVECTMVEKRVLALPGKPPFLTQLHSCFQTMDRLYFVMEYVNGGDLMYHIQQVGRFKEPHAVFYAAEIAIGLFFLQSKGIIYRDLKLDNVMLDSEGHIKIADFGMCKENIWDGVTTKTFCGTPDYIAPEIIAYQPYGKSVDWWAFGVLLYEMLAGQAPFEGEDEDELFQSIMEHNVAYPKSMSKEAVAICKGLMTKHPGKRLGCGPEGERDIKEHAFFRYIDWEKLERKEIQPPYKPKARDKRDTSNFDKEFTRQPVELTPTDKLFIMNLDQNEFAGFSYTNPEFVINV
Experimental: as §1

TEC = target: T6, TEC (Homo sapiens, UniProt P42680)
T6 sequence (P42680 1-631): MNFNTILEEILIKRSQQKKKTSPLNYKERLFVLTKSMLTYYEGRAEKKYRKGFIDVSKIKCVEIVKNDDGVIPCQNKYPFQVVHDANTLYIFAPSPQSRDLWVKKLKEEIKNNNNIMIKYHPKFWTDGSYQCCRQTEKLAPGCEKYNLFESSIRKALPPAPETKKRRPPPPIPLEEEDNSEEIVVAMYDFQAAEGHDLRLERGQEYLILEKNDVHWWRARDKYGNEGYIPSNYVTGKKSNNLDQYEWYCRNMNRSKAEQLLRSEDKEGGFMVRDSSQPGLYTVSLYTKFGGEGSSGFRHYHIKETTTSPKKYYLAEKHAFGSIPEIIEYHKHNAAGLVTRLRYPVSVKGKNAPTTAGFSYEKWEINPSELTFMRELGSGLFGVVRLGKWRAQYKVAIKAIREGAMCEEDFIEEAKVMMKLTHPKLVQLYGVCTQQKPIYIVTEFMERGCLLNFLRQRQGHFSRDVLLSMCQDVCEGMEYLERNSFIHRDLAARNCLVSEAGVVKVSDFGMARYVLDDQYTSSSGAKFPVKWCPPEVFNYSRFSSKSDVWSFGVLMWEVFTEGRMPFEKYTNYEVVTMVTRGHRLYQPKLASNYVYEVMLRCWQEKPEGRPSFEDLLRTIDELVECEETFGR
Experimental: as §1

T1 sequence (Q9P289 whole entry): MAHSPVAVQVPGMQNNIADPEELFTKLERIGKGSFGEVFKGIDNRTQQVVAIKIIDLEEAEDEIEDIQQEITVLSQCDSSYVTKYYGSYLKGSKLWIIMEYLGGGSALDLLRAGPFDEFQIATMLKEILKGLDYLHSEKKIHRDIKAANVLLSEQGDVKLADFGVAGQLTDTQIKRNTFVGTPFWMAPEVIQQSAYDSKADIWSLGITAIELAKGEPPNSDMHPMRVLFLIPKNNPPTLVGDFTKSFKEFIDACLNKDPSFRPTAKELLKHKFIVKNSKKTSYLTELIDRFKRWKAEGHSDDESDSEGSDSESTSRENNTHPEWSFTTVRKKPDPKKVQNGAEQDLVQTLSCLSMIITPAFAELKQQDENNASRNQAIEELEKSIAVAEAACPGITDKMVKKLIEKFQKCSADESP

inhibition at 10 µM (MST4): 96.1%
inhibition at 10 µM (ACK): 93.6%
inhibition at 10 µM (MSK1): 94.7%
inhibition at 10 µM (EphB6): 93.6%
inhibition at 10 µM (PKCb): 97.3%
inhibition at 10 µM (TEC): 97%
Structure (SMILES): CS(=O)(=O)Nc1ccccc1Nc1nc(Nc2cccc(OCCN)c2)ncc1Cl [CZC31326, N-(2-(2-(3-(2-aminoethoxy)phenylamino)-5-chloropyrimidin-4-ylamino)phenyl)methanesulfonamide]

Source: patent US20120270237A9, “METHODS FOR THE IDENTIFICATION OF KINASE INTERACTING MOLECULES AND FOR THE PURIFICATION OF KINASE PROTEINS” (Cellzone AG, priority 2009, published 2012)
